# Measurements taken from patent US11534404B2, “Multilayer beads for pharmaceutical use” (Sucampo AG, priority 2016, dated 2022).
# Tests used:
# Format in all cases: physicochemical
# [1] = Lubiprostone-excipient contact stability study, mechanical mixing of powder (Example 1C); settings: for % of the initial: 55° C. 10 d, remaining lubiprostone by HPLC
# Experimental: Test samples were prepared by direct (mechanical) mixing of various excipients and lubiprostone drug in approximately 50:50 and 99:1 ratios. The mechanical mixing of lubiprostone and excipients was conduct by admixing them using a conventional mortar. The prepared mixtures were then placed under accelerated stress stability conditions at 55° C. for 10 days. After 10 days, these samples were analyzed by HPLC to determine the amount of remaining lubiprostone and impurities generated as a result of the degradation of lubiprostone.
# [2] = Lubiprostone-excipient contact stability study, solid solution (Example 1B); settings: for % of the initial: 55° C. 10 d, remaining lubiprostone by HPLC
# Experimental: Additional test samples were prepared for the study by admixing various excipients and lubiprostone drug in ratios of about 50:50 and about 99:1. Solid solutions were prepared by mixing lubiprostone/MeCN and Excipient/MeCN, combining these mixtures and then removing the solvent by evaporation. The prepared mixtures were then placed under accelerated stress stability conditions at 55° C. for 10 days. After 10 days, these samples were analyzed by HPLC method to determine the amount of remaining lubiprostone and impurities generated as a result of the degradation of lubiprostone.
# [3] = Lubiprostone-excipient contact stability study (Example 1A); settings: excipient:lubiprostone approx 50:50; 55° C. 10 days; HPLC
# Experimental: Test samples were prepared for the study in approximately 50:50 proportion using various excipients and lubiprostone drug. These prepared mixtures were then placed on accelerated stress stability conditions at 55° C. for 10 days. After 10 days, these samples were analyzed by a suitable HPLC method to determine assay (the amount of remaining Lubiprostone) and impurities generated due to degradation of lubiprostone.
# [4] = Mechanical mixing of powder 50:50
# [5] = Mechanical mixing of powder 99:1
compound,measurement,setting,value
"CCCCC(F)(F)[C@@]1(O)CC[C@H]2[C@@H](CC(=O)[C@@H]2CCCCCCC(=O)O)O1 [Lubiprostone, (−)-7-[(2R,4aR,5R,7aR)-2-(1,1-difluoropentyl)-2-hydroxy-6-oxooctahydrocyclopenta[b]pyran-5-yl]heptanoic acid]",55° C. 10 d Impurities,[1]; [4],24.5
same,% of the initial,[1]; [4],55.6%
same,55° C. 10 d Impurities,[1]; [5],24.5
same,% of the initial,[1]; [5],55.6%
same,55° C. 10 d Impurities,[2]; Solid solution 50:50,33.5
same,% of the initial,[2]; Solid solution 50:50,44.4%
same,55° C. 10 d Impurities,[2]; Solid solution 99:1,35.5
same,% of the initial,[2]; Solid solution 99:1,44.4%
same,Assay (% of initial),[3],42.3%
same,Total Impurities,[3],59.0%
